# Results as given in patent US20230192626A1 (Baylor College of Medicine, priority 2020, published 2023).
# pIC50: −log10 of the molar value.
# Biological target: T1, Human sEH (hsEH) (Homo sapiens, UniProt P34913)
# T1 construct: purchased Cayman Chemicals
# T1 sequence (P34913 1-555): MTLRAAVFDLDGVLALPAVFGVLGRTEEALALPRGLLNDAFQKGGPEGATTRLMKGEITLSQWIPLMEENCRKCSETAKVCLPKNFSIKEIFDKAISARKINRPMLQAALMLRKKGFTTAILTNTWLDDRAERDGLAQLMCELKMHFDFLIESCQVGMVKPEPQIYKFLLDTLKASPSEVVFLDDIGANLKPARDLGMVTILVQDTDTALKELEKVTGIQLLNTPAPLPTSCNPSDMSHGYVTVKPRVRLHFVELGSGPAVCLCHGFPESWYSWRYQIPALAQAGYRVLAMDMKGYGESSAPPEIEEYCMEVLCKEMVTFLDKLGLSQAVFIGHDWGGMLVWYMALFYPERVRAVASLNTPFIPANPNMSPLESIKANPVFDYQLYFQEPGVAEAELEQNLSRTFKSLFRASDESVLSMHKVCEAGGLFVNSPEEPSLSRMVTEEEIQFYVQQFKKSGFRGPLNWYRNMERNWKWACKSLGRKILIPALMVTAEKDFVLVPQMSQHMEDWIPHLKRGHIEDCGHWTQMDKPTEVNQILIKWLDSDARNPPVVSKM
# Test: fluorescence-based sEH biochemical inhibition assay (PHOME substrate)
# Settings: Table 1; hsEH 5 nM, PHOME 50 μM, 30° C.
# Protocol: The benzimidazole-based compounds synthesized according to Example 1 were measured for activity. Using a fluorescence-based sEH biochemical inhibition assay, the IC50 value was measured for each benzimidazole-based compound. Human sEH (hsEH) and its substrate PHOME were purchased from Cayman Chemicals. IC50 values of hsEH inhibitors were determined by fluorescence. IC50 is defined as the concentration of the inhibitor that blocks 50% of the enzymatic activity. To a 96-well plate containing 10 μL enzyme (5 nM in water), 60 μL of H2O and 10 μL BisTris-HCl buffer (25 mM, pH 7.0) were added inhibitors with different concentrations. The mixture was incubated for 5 min at 30° C. prior to addition of 10 μL of PHOME substrate (50 μM). Fluorescence were measured at 30° C. with an excitation wavelength of 330 nm and an emission wavelength of 465 nm using a BioTek H1 plate reader. The IC50 values were calculated by non-linear regression fitting. The curve was generated from at least three separate runs, each in duplicates. Results are given as means and standard deviations. In Table 1, an IC50 value less than or equal to 1 μM is indicated as an “A.” an IC50 value from greater than 1 μM to less than 10 μM is indicated as a “B′” and an IC50 value of greater than or equal to 10 μM is indicated as a “C.”
# Additional benzimidazole-based compounds as described herein were measured for activity according to the procedure outlined in Example 2. Briefly, using a fluorescence-based sEH biochemical inhibition assay, the IC50 value was measured for each benzimidazole-based compound.
row,pIC50,Compound
1,≥ 6.00,"Fc1cc2nc(-c3ccc(-c4ccccc4)cc3)[nH]c2cc1Br [Compound 45, 2-([1,1′-biphenyl]-4-yl)-6-bromo-5-fluoro-1H-benzo[d]imidazole]"
2,≥ 6.00,"COc1ccc(-c2nc3cc(F)c(F)cc3[nH]2)cc1 [Compound 46, 5,6-difluoro-2-(4-methoxyphenyl)-1H-benzo[d]imidazole]"
3,≤ 5.00,"CC(=O)Nc1ccc(-c2nc3cc(F)c(F)cc3[nH]2)cc1 [Compound 47, N-(4-(5,6-difluoro-1H-benzo[d]imidazol-2-yl)phenyl)acetamide]"
4,≥ 6.00,"Fc1ccc2[nH]c(-c3ccc(C(F)(F)F)cc3)nc2c1F [Compound 48, 4,5-difluoro-2-(4-(trifluoromethyl)phenyl)-1H-benzo[d]imidazole]"
5,≤ 5.00,"Fc1ccc2[nH]c(-c3ccc(-c4ccccc4)cc3)nc2c1F [Compound 49, 2-([1,1′-biphenyl]-4-yl)-4,5-difluoro-1H-benzo[d]imidazole]"
6,5.00 to 6.00,"Fc1cc2nc(-c3ccnc(C(F)(F)F)c3)[nH]c2cc1F [Compound 50, 5,6-difluoro-2-(2-(trifluoromethyl)pyridin-4-yl)-1H-benzo[d]imidazole]"
7,≥ 6.00,"Fc1ccc(Oc2ccc(-c3nc4cc(F)c(F)cc4[nH]3)cc2)cc1 [Compound 52, 5,6-difluoro-2-(4-(4-fluorophenoxy)phenyl)-1H-benzo[d]imidazole]"
8,≥ 6.00,"Fc1cc2nc(-c3ccc(Oc4ccccc4)cc3)[nH]c2cc1F [Compound 53, 5,6-difluoro-2-(4-phenoxyphenyl)-1H-benzo[d]imidazole]"
9,≥ 6.00,"N#Cc1ccc(-c2nc3cc(F)c(F)cc3[nH]2)cc1 [Compound 54, 4-(5,6-difluoro-1H-benzo[d]imidazol-2-yl)benzonitrile]"
10,≥ 6.00,"O=c1[nH]nc(-c2ccc(-c3nc4cc(F)c(F)cc4[nH]3)cc2)o1 [Compound 55, 5-(4-(5,6-difluoro-1H-benzo[d]imidazol-2-yl)phenyl)-1,3,4-oxadiazol-2(3H)-one]"
11,≥ 6.00,O=C(O)c1ccc(-c2nc3cc(F)c(F)cc3[nH]2)cc1 [Compound 56]
12,≤ 5.00,"COC(=O)c1ccc(-c2nc3cc(F)c(F)cc3[nH]2)cc1 [Compound 57, Methyl 4-(5,6-difluoro-1H-benzo[d]imidazol-2-yl)benzoate]"
13,≤ 5.00,"Fc1cc2nc(-c3ccc(-c4nnco4)cc3)[nH]c2cc1F [Compound 58, 2-(4-(5,6-difluoro-1H-benzo[d]imidazol-2-yl)phenyl)-1,3,4-oxadiazole]"
14,5.00 to 6.00,"Fc1cc2nc(-c3ccc(-c4ccncc4)cc3)[nH]c2cc1F [Compound 59, 5,6-difluoro-2-(4-(pyridin-4-yl)phenyl)-1H-benzo[d]imidazole]"
15,≤ 5.00,"Cc1noc(-c2ccc(-c3nc4cc(F)c(F)cc4[nH]3)cc2)n1 [Compound 60, 5-(4-(5,6-difluoro-1H-benzo[d]imidazol-2-yl)phenyl)-3-methyl-1,2,4-oxadiazole]"
16,≤ 5.00,"Fc1cc2nc(-c3ccc(-c4nnn[nH]4)cc3)[nH]c2cc1F [Compound 61, 2-(4-(1H-tetrazol-5-yl)phenyl)-5,6-difluoro-1H-benzo[d]imidazole]"
